Reference: patent publication US10604555B2, “GIP derivatives and uses thereof” (priority 2018, dated 2020)
Where two headings read alike, the source gives them in different places. Side-chain parts run from the residue outwards. [ ]: non-standard residue; d: D form. The star is where a group is joined. C20 diacid = O=C(O)CCCCCCCCCCCCCCCCCCC(=O)*; Nle = CCCC[C@H](N)C(=O)O; AEEA = NCCOCCOCC(=O)O; Aib = CC(C)(N)C(=O)O

Assays:
[1] = cited from earlier work
[2] = ThT fibrillation assay (physical stability); type: physicochemical; conditions: 250 μM, pH 7.4, 37° C., 45 hours of incubation
Procedure: The Thioflavin T assay was performed as outlined in Schlein (2017), AAPS J, 19(2), 397-408.
This has traditionally been measured by visual inspection of the sample. However, that kind of measurement is very cumbersome and depending on the observer. Therefore, the application of a small molecule indicator probe is much more advantageous. Thioflavin T (ThT) is such a probe and has a distinct fluorescence signature when binding to fibrils [Naiki et al. (1989) Anal. Biochem. 177, 244-249; LeVine (1999) Methods. Enzymol. 309, 274-284].
The time course for fibril formation can be described by a sigmoidal curve with the following expression [Nielsen et al. (2001) Biochemistry 40, 6036-6046]:
Here, F is the ThT fluorescence at the time t. The constant t0 is the time needed to reach 50% of maximum fluorescence. The two important parameters describing fibril formation are the lag-time calculated by t0−2τ and the apparent rate constant kapp 1/τ.
Few of those intermediates nucleate to form a template onto which further intermediates may assembly and the fibrillation proceeds. The lag-time corresponds to the interval in which the critical mass of nucleus is built up and the apparent rate constant is the rate with which the fibril itself is formed.
Samples are prepared freshly before each assay. The drug substance was solved with 250 μM of the GIP derivative in 8 mM phosphate, 14 mg/mL propylene glycol, 58 mM phenol, pH 7.4. The pH of the sample was adjusted to the desired value using appropriate amounts of concentrated NaOH and HCl. Thioflavin T was added to the samples from a stock solution in H2O to a final concentration of 1 μM.
Sample aliquots of 200 μl were placed in each well of a 96 well microtiter plate (Packard OptiPlate™-96, white polystyrene). Four replica of each sample (corresponding to one test condition) was placed in one column of wells. The plate was sealed with Scotch Pad (Qiagen).
Incubation, shaking and measurement of the ThT fluorescence emission were done in a Fluoroskan Ascent FL fluorescence platereader (Thermo Labsystems). […] Fluorescence measurement was done using excitation through a 444 nm filter and measurement of emission through a 485 nm filter.
Each run was initiated by incubating the plate at the assay temperature for 10 min. The plate was measured every 20 minutes for a desired period of time. Between each measurement, the plate was shaken and heated as described.
After completion of the ThT assay the replica of each sample was pooled and centrifuged at 20000 rpm for 30 minutes at 18° C. The supernatant was filtered through a 0.22 μm filter and an aliquot was transferred to a HPLC vial. The concentration of the filtered sample relative to the initial sample (in percentage) was reported as the recovery.
The measurement points were saved in Microsoft Excel format for further processing and curve drawing and fitting was performed using GraphPad Prism. […] The data points were a mean of the four replica and shown with standard deviation error bars. Only data obtained in the same experiment (i.e. samples on the same plate) were presented in the same graph ensuring a relative measure of fibrillation between experiments.
The data set may be fitted to Eq. (1).

[3] = Chemical stability: purity loss by LCMS; type: physicochemical; conditions: 37° C., 4 weeks, 250 μM, pH 7.4
Procedure: The aim of this study is to determine the chemical stability of GIP derivative compositions. As a measure of stability of the GIP derivative composition, the formation of high molecular weight peptide formation (% HMWP) as a function of time was analysed by size-exclusion chromatography (SEC-MS). Further, the purity loss of the GIP derivative compositions was measured by LCMS. Samples for chemical stability assays were freshly prepared before each assay. […] The pH of the sample was adjusted to the desired value using appropriate amounts of concentrated NaOH and HCl. […] The column oven was kept at 55° C. […] The solvents were pumped from a binary solvent manager system and mixed on the high pressure side in a mixer with a volume of 50 μl. The gradient and flow can be seen in table 4: [table] A Flow-through-needle auto sampler at 8° C. was used to inject 1 μl of each sample. The effluent passed through a tunable UV detector (TUV) tuned to 215 nm. The outlet from the UV detector passed to the electrospray source of the mass spectrometer. The capillary was held at 3 kV and dry nitrogen gas was purged at a flow of 750 I/h and a temperature of 250° C. The source block was kept at 120° C. and the large bore cone was flushed with nitrogen at 50 I/h with standard electrode potentials on the rest of the instrument. The MS was operated in high resolution mode with a nominal resolution of 35000. The ToF analyser was operated in ADC mode with an m/z window from 100-2000.

[4] = Chemical stability: HMWP formation by SEC-MS; type: physicochemical; conditions: 37° C., 4 weeks, 250 μM, pH 7.4
Procedure: The aim of this study is to determine the chemical stability of GIP derivative compositions. As a measure of stability of the GIP derivative composition, the formation of high molecular weight peptide formation (% HMWP) as a function of time was analysed by size-exclusion chromatography (SEC-MS). Further, the purity loss of the GIP derivative compositions was measured by LCMS. Samples for chemical stability assays were freshly prepared before each assay. […] The pH of the sample was adjusted to the desired value using appropriate amounts of concentrated NaOH and HCl. […] Formation of covalent oligomers (HMWPs) was analysed and identified by a SEC-MS method. […] The LC system was coupled to both a TUV detector operated at 215 nm, 10 Hz and a high resolution QToF mass spectrometer from Waters (Synapt G2S) operated in positive ion mode and m/z range of 100 to 4000 with normal resolution setting. Lock mass correction against Leu-Enkephalin was done every 31 sec. Spectra were processed in MassLynx version 4.1 and MaxEnt deconvoluted.

[5] = type: physicochemical; conditions: pH 7.4

ThT Assay Lag time [2] [h] | Purity loss (%/month) [3] [%/month] | HMWP formation (%/month) [4] [%/month] | Compound | half-life of hGIP(1-42) measured in man ([1]; Deacon et al., J. Clin. Endocrinol. & Metab.) [min] | half-life of hGIP(1-42) measured in man ([1]; Meier et al., Diabetes) | solubility at given pH [5]
0.33 | 73.1 | 2.0 | CC[C@H](C)[C@H](NC(=O)[C@H](CO)NC(=O)[C@H](Cc1ccc(O)cc1)NC(=O)[C@H](CC(=O)O)NC(=O)[C@H](CO)NC(=O)[C@@H](NC(=O)[C@H](Cc1ccccc1)NC(=O)[C@@H](NC(=O)CNC(=O)[C@H](CCC(=O)O)NC(=O)[C@H](C)NC(=O)[C@@H](N)Cc1ccc(O)cc1)[C@@H](C)O)[C@@H](C)CC)C(=O)N[C@@H](C)C(=O)N[C@@H](CCSC)C(=O)N[C@@H](CC(=O)O)C(=O)N[C@@H](CCCCN)C(=O)N[C@H](C(=O)N[C@@H](Cc1c[nH]cn1)C(=O)N[C@@H](CCC(N)=O)C(=O)N[C@@H](CCC(N)=O)C(=O)N[C@@H](CC(=O)O)C(=O)N[C@@H](Cc1ccccc1)C(=O)N[C@H](C(=O)N[C@@H](CC(N)=O)C(=O)N[C@@H](Cc1c[nH]c2ccccc12)C(=O)N[C@@H](CC(C)C)C(=O)N[C@@H](CC(C)C)C(=O)N[C@@H](C)C(=O)N[C@@H](CCC(N)=O)C(=O)N[C@@H](CCCCN)C(=O)NCC(=O)N[C@@H](CCCCN)C(=O)N[C@@H](CCCCN)C(=O)N[C@@H](CC(N)=O)C(=O)N[C@@H](CC(=O)O)C(=O)N[C@@H](Cc1c[nH]c2ccccc12)C(=O)N[C@@H](CCCCN)C(=O)N[C@@H](Cc1c[nH]cn1)C(=O)N[C@@H](CC(N)=O)C(=O)N[C@H](C(=O)N[C@H](C(=O)N[C@@H](CCC(N)=O)C(=O)O)[C@@H](C)O)[C@@H](C)CC)C(C)C)[C@@H](C)CC [hGIP(1-42), reference compound] | ~7 | about 5 min | –
– | – | – | N{1}-acetyl,N{Epsilon-24}-[2-[2-[2-[[2-[2-[2-[[4-[(19-carboxynonadecanoylamino)methyl]cyclohexanecarbonyl]amino]ethoxy]ethoxy]acetyl]amino]ethoxy]ethoxy]acetyl]-[D-Tyr1,Aib2,Nle14,Arg18,Lys24,Pro31]-hGIP(1-31) amide (Ac-[dY][Aib]EGTFISDYSIA[Nle]DKIRQQDFVK([AEEA-AEEA-4‑(aminomethyl)cyclohexanecarbonyl-C20 diacid])WLLAQKP-NH2) [Compound 44] | – | – | **Compound not soluble at given pH.
